Literature values, collected in patent publication US9045248B2 (priority 2007, dated 2015).

Molecular target: influenza virus RNP (Influenza A virus, UniProt P03428)
Settings: cited from earlier work

influenza virus RNP, sequence (P03428 whole entry, looked up): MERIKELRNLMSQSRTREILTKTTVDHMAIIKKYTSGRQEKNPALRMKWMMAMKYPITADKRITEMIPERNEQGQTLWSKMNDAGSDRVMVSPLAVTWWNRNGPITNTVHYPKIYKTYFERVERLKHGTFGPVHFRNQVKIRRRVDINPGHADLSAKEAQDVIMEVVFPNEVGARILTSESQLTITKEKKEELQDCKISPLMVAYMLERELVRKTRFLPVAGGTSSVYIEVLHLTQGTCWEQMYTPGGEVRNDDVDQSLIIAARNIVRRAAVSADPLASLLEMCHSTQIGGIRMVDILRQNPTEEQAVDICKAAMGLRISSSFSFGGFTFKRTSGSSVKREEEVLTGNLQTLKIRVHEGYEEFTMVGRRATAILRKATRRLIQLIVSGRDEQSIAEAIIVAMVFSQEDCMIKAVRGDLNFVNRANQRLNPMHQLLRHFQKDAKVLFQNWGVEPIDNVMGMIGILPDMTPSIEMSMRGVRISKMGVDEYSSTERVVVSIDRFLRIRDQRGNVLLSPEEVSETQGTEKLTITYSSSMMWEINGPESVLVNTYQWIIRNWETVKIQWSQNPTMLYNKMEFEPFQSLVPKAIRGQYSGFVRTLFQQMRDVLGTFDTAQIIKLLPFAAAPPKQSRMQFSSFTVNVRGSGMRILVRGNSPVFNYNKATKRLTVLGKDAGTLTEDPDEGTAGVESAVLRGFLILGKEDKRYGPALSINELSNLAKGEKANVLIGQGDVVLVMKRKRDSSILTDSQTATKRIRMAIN

Structure (SMILES) | IC50 [µM]
C[n+]1cn([C@@H]2O[C@H](COP(=O)(O)OP(=O)(O)OP(=O)(O)O)[C@@H](O)[C@H]2O)c2nc(N)[nH]c(=O)c21 [m^7GTP, 7-methyl-guanosine triphosphate] | 113
Nc1nc2c(ncn2[C@@H]2O[C@H](COP(=O)(O)OP(=O)(O)OP(=O)(O)O)[C@@H](O)[C@H]2O)c(=O)[nH]1 [GTP] | 550
